This is an account of results in article PMC6637749 (Journal of medicinal chemistry, 2018).

The subject of data set [1] is panel of melanoma cell lines (A375, M14, RPMI7951). In words: Antiproliferative activity, panel of melanoma cell lines. Type of data set: cell-based, human. The note with it: for IC50: Homo sapiens, 72 h, read-out: IC50 values, range over the melanoma cell lines.
Another data set has as its target Bovine brain tubulin (Bos taurus, UniProt P81947+Q6B856). In words: Tubulin polymerization assay. The format is biochemical. As to conditions: 10 μM compound, absorbance at 340 nm, 37 °C; vehicle control Vmax = 27.
The next data set deals with A375 melanoma xenograft. Type of data set: in vivo. The note with it: doses up to 30 mg/kg i.p., nude mice.
The test system of data set [2] is docetaxel-resistant DU145/TxR prostate cancer cell line. The data set can be described thus: Cytotoxicity. The format is cell-based. The note with it: at concentrations up to 1 μM.

Sequence of Bovine brain tubulin (Q6B856 whole entry): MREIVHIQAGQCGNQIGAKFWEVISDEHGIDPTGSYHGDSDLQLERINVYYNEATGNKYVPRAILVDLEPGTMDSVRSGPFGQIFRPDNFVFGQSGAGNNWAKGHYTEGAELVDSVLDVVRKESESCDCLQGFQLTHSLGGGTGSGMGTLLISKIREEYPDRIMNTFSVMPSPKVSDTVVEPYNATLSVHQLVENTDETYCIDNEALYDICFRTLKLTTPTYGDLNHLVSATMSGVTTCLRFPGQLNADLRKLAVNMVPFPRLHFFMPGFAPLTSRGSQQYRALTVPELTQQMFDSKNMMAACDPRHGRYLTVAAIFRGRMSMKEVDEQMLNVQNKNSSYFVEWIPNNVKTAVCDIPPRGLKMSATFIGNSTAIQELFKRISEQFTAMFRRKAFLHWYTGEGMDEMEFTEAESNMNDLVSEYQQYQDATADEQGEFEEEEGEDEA
Sequence of Bovine brain tubulin (P81947 whole entry): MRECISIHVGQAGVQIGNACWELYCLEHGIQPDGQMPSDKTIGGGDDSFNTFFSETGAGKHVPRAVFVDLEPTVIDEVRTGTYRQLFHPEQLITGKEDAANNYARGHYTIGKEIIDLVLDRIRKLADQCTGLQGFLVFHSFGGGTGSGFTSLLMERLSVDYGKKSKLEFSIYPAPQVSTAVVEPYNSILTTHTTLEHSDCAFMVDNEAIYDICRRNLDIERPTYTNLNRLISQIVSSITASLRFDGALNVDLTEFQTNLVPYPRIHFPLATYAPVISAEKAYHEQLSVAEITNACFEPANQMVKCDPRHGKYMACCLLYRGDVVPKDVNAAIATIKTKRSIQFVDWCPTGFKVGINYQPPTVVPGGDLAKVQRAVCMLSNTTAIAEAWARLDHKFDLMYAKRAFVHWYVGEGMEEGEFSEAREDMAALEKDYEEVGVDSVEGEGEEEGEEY

Regarding `O=C(c1ccc2c(c1)OCCO2)c1c[nH]c(-c2c[nH]c3ccccc23)n1` [13a, (2-(1H-Indol-3-yl)-1H-imidazol-5-yl)(2,3-dihydrobenzo[b][1,4]-dioxin-6-yl)methanone], the half-maximal inhibitory concentration (IC50) in data set [1] fell in the range of 119 to 218 nM.

`COc1cc(C(=O)c2c[nH]c(-c3c[nH]c4ccccc34)n2)cc2c1OCCO2` [13c, (2-(1H-Indol-3-yl)-1H-imidazol-5-yl)(8-methoxy-2,3-dihydrobenzo[b][1,4]dioxin-6-yl)methanone]: in data set [1], the IC50 is 11.3 to 29.2 nM.

In the case of `COc1cc(C(=O)c2c[nH]c(-c3c[nH]c4ccccc34)n2)cc2c1OCO2` [13d, (2-(1H-Indol-3-yl)-1H-imidazol-5-yl)(7-methoxybenzo[d][1,3]-dioxol-5-yl)methanone], in data set [1], the concentration for half-maximal inhibition (IC50) lay within 3.5 to 5.6 nM. In data set [1] (antiproliferative IC50 compared with 13b), the “fold more active than 13b” value is listed as 30 fold. For the same compound, the “fold more potent than 13c” value in data set [1] (antiproliferative IC50 compared with 13c) is ~ 4 fold.

As for `COc1cc(C(=O)c2c[nH]c(-c3c[nH]c4ccccc34)n2)cc2c1OCCCO2` [13e, (2-(1H-Indol-3-yl)-1H-imidazol-5-yl)(9-methoxy-3,4-dihydro-2H-benzo[b][1,4]dioxepin-7-yl)methanone], the concentration for half-maximal inhibition (IC50) in data set [1] fell in the range of 32.2 to 47.7 nM.

For the compound `COc1cc(C(=O)c2c[nH]c(-c3c[nH]c4ccccc34)n2)cc2c1OC=CO2` [13f, (2-(1H-Indol-3-yl)-1H-imidazol-5-yl)(8-methoxybenzo[b][1,4]-diOXin-6-yl)methanone], on Bovine brain tubulin, the “tubulin polymerization Vmax” value turned out to be 0. Moreover, the “apparent toxicity (mouse weights and activities)” value with A375 melanoma xenograft is “without causing apparent toxicity”. Also, the IC50 in data set [1] is 1.1 to 3.3 nM.

With `COc1cc(C(=O)c2c[nH]c(-c3cccc4[nH]ccc34)n2)cc2c1OC=CO2` [compound 19, (2-(1H-Indol-4-yl)-1H-imidazol-5-yl)(8-methoxybenzo[b][1,4]-diOXin-6-yl)methanone], the “fold reduced antiproliferative activity compared to 13f” value in data set [1] (compared with 13f) is ~ 11 fold.

Consider `COc1cc(C(=O)c2c[nH]c(-c3c[nH]c4cccc(C)c34)n2)cc2c1OC=CO2` [compound 25, (8-Methoxybenzo[b][1,4]dioxin-6-yl) (2-(4-methyl-1H-indol-3-yl)-1H-imidazol-5-yl)methanone], for which, in data set [1], the IC50 fell in the range of 6.1 to 8.8 nM.

Turning to `CC(=O)O[C@H]1C(=O)[C@@]2(C)[C@H]([C@H](OC(=O)c3ccccc3)[C@]3(O)C[C@H](OC(=O)[C@H](O)[C@@H](NC(=O)c4ccccc4)c4ccccc4)C(C)=C1C3(C)C)[C@]1(OC(C)=O)CO[C@@H]1C[C@@H]2O` [paclitaxel], the “effect in DU145/TxR cells” value in data set [2] was “no effect was observed at all”.
